Data reported in US8008292B2, “Condensed benzamide compounds and inhibitors of vanilloid receptor subtype 1 (VR1) activity” (Japan Tobacco Inc., priority 2004, dated 2011).

Target: T1, human VR1 (Homo sapiens, UniProt Q8NER1)
T1 construct: expressed in transfected cells
Test: Inhibition of Ca2+ entry in cells caused by proton, in rat glioma (C6BU1) cells stably expressing human VR1 (Fura 2 fluorescence)
Format: cell-based
Settings: inhibition of proton-induced Ca2+ entry
Description: The assay for evaluation of VR1 inhibition by the inventive compounds will be described below. The assay was intended to evaluate in vitro inhibition of Ca^2+ entry in cells caused by proton, one of the VR1 agonists.
Rat glioma (C6BU1) cells stably expressing human VR1 were suspended in 20 mM MES buffer (at pH 6.8, contg. 20 mM 2-morpholinoethanesulfonate (referred to as MES hereinafter), 115 mM NaCl, 5 mM KCl, 1 mM MgCl2 and 14 mM D-glucose) to make a cell density of 1×10^6 cells/mL. A fluorescent dye, Fura 2-AMsolution (DojindoCorporate, Cat. No. 343-05401) was added to the suspension to make a 5 μM concentration thereof. Further, Pluronic F-127 (Wako Pure Chemical Industries, Ltd., Cat. No. P6866) was added to make a 0.1% content thereof. Then, the suspension was incubated at 37° C. for 30 min. The cells were harvested and washed three times with 20 mM MES buffer. The cells were suspended again to make a cell density of 5×10^5 cells/mL. A 500-μL portion of the suspension was taken with a cuvette (MC MEDICAL, INC., Cat. No. SSR3121), to which 10 μL of 20 mM MES buffer containing 250 mM CaCl2 was added to incorporate Ca^2+ into the cells. At the same time, 5 μL of a test compound solution (in a range of 100 μM to 10 nM in DMSO) was also added to provide a final concentration thereof in a range of 1 μM to 0.1 nM. Alternatively, 5 μL of DMSO was added as control to provide a final concentration of 1% DMSO. The suspension was set in an intracellular ionometer (CAF-110; JASCO) 10 min after those additions. The cells were stimulated with protons by addition of 60 μL of 20 mM MES buffer at pH 1.1 to the suspension to set its pH at 5.5. The activity of the test compound was determined as a difference between the minimum of fluorescence intensity before agonist stimulation and its maximum after the stimulation. The value of IC50 was derived from percentage of inhibition by the test compound compared with the control.
In the tables, the symbol “++” indicates an IC50 value less than 100 nM and the symbol “+” indicates an IC50 value of 100 nM to 1,000 nM inclusive.

T1 sequence (Q8NER1 whole entry): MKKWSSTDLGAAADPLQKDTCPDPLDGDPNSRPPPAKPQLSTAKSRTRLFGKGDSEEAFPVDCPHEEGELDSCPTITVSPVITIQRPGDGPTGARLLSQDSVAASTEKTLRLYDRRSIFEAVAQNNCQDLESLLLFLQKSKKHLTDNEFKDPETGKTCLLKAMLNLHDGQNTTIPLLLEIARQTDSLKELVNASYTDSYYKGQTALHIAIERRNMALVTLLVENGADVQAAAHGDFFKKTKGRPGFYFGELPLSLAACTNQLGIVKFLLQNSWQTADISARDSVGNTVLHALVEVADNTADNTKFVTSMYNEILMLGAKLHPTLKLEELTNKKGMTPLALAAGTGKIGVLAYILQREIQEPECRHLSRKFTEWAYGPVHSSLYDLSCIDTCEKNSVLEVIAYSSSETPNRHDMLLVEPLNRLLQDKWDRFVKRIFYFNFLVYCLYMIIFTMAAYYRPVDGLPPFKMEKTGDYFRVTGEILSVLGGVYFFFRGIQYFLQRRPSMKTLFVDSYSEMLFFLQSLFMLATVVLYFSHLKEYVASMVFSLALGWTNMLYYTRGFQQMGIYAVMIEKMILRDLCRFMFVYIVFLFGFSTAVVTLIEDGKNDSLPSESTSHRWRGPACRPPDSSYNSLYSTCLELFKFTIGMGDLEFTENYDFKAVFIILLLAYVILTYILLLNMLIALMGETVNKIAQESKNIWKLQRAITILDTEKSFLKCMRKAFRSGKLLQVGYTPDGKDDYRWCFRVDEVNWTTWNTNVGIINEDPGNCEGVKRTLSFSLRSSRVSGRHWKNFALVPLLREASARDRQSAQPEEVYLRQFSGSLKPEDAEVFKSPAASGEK

SMILES | IC50
Cc1ccnc(N2CCOc3c(C(=O)Nc4ccc(C(C)(C)C)cc4)cccc32)c1 [Example 1-058, N-(4-tert-butylphenyl)-4-(4-methylpyridin-2-yl)-3,4-dihydro-2H-benzo[1,4]oxazine-8-carboxamide] | 0.1 to 1 µM
Cc1cccc(N2CCOc3c(C(=O)Nc4ccc(C(C)(C)C)cc4)cccc32)n1 [Example 1-059] | 0.1 to 1 µM
Cc1ccc(N2CCOc3c(C(=O)Nc4ccc(C(C)(C)C)cc4)cccc32)nc1 [Example 1-060] | < 0.1 µM
CC(C)(C)c1ccc(NC(=O)c2cccc3c2OCCN3c2cccnc2)cc1 [Example 1-061] | 0.1 to 1 µM
Cc1ccc(N2CCOc3c(C(=O)Nc4ccc(C#N)cc4)cccc32)nc1 [Example 1-062] | < 0.1 µM
Cc1ccc(N2CCOc3c(C(=O)Nc4ccc(Cl)c(N)c4)cccc32)nc1 [Example 1-063] | < 0.1 µM
CCOC1CCN(c2ccc(NC(=O)c3cccc4c3OCCN4c3ccc(C)cn3)cc2F)CC1 [Example 1-068] | < 0.1 µM
Cc1ccc(N2CCOc3c(C(=O)Nc4ccc(N5CCC(OC(C)C)CC5)c(F)c4)cccc32)nc1 [Example 1-069] | < 0.1 µM
COC1CCCN(c2ccc(NC(=O)c3cccc4c3OCCN4c3ccc(C)cn3)cc2F)C1 (stereo not shown) [Example 1-070] | < 0.1 µM
COCC1CCN(c2ccc(NC(=O)c3cccc4c3OCCN4c3ccc(C)cn3)cc2F)CC1 [Example 1-071] | < 0.1 µM
COC1CCN(c2ccc(NC(=O)c3cccc4c3OCCN4c3ccc(C)cn3)cc2F)C1 (stereo not shown) [Example 1-072] | < 0.1 µM
COC(=O)c1cc(NC(=O)c2cccc3c2OCCN3c2ccc(C)cn2)ccc1OCC(C)C [Example 1-073] | < 0.1 µM
Cc1ccc(N2CCOc3c(C(=O)Nc4ccc(OCC(C)C)c(C(N)=O)c4)cccc32)nc1 [Example 1-075] | 0.1 to 1 µM
CNC(=O)c1cc(NC(=O)c2cccc3c2OCCN3c2ccc(C)cn2)ccc1OCC(C)C [Example 1-076] | 0.1 to 1 µM
Cc1ccc(N2CCOc3c(C(=O)Nc4ccc(OCC(C)C)c(C(=O)N(C)C)c4)cccc32)nc1 [Example 1-077] | 0.1 to 1 µM
CC(=O)c1ccc(NC(=O)c2cccc3c2OCCN3c2ccc(C)cn2)cc1 [Example 1-078] | < 0.1 µM
CC(=O)c1cc(NC(=O)c2cccc3c2OCCN3c2ccc(C)cn2)ccc1Cl [Example 1-080] | < 0.1 µM
Cc1ccc(N2CCOc3c(C(=O)Nc4ccc(Cl)c(C(C)(C)C)c4)cccc32)nc1 [Example 1-081] | < 0.1 µM
COC(C)(C)c1ccc(NC(=O)c2cccc3c2OCCN3c2ccc(C)cn2)cc1 [Example 1-082] | < 0.1 µM
COc1cc(NC(=O)c2cccc3c2OCCN3c2ccc(C)cn2)ccc1Cl [Example 1-083] | < 0.1 µM
CCCOc1ccc(NC(=O)c2cccc3c2OCCN3c2ccc(C)cn2)cc1 [Example 1-084] | < 0.1 µM
CCCOc1ccc(NC(=O)c2cccc3c2OCCN3c2ccc(C)cn2)cc1F [Example 1-085] | < 0.1 µM
CCOc1ccc(NC(=O)c2cccc3c2OCCN3c2ccc(C)cn2)cc1F [Example 1-086] | < 0.1 µM

SMILES | IC50
CCOc1cc(NC(=O)c2cccc3c2OCCN3c2ccc(C)cn2)ccc1C [Example 1-087] | < 0.1 µM
COCCOc1cc(NC(=O)c2cccc3c2OCCN3c2ccc(C)cn2)ccc1C [Example 1-089] | < 0.1 µM
COCC1CCCCN1c1ccc(NC(=O)c2cccc3c2OCCN3c2ccc(C)cn2)cc1F (stereo not shown) [Example 1-090] | < 0.1 µM
Cc1ccc(N2CCOc3c(C(=O)Nc4ccc(Cl)cc4)cccc32)nc1 [Example 1-091] | < 0.1 µM
Cc1ccc(N2CCOc3c(C(=O)Nc4ccc(C)c(F)c4)cccc32)nc1 [Example 1-092] | < 0.1 µM
Cc1ccc(N2CCOc3c(C(=O)Nc4ccc(Cl)nc4)cccc32)nc1 [Example 1-093] | 0.1 to 1 µM
CCOc1ccc(NC(=O)c2cccc3c2OCCN3c2ncccc2Cl)cc1 [Example 1-094] | < 0.1 µM
O=C(Nc1ccc(N2CCCCC2)c(F)c1)c1cccc2c1OCCN2c1ncccc1Cl [Example 1-095] | < 0.1 µM
O=C(N[C@H]1CC[C@H](OC2CCCC2)CC1)c1cccc2c1OCCN2c1ncccc1Cl [Example 1-098] | 0.1 to 1 µM
O=C(N[C@H]1CC[C@H](OC2CCCCC2)CC1)c1cccc2c1OCCN2c1ncccc1Cl [Example 1-099] | 0.1 to 1 µM
O=C(Nc1ccc(C(F)(F)F)cc1)c1cccc2c1OCCN2c1ncccc1Cl [Example 1-100] | < 0.1 µM
COC1CCN(c2ccc(NC(=O)c3cccc4c3OCCN4c3ncccc3Cl)cc2F)CC1 [Example 1-101] | < 0.1 µM
CCOC1CCN(c2ccc(NC(=O)c3cccc4c3OCCN4c3ncccc3Cl)cc2F)CC1 [Example 1-102] | < 0.1 µM
CC(C)OC1CCN(c2ccc(NC(=O)c3cccc4c3OCCN4c3ncccc3Cl)cc2F)CC1 [Example 1-103] | < 0.1 µM
CC(C)CNc1ccc(NC(=O)c2cccc3c2OCCN3c2ncccc2Cl)cc1F [Example 1-104] | < 0.1 µM
Cc1ccc(N2CCOc3c(C(=O)N[C@H]4CC[C@H](OC(C)C)CC4)cccc32)nc1 [Example 1-106] | 0.1 to 1 µM
Cc1ccc(N2CCOc3c(C(=O)N[C@H]4CC[C@H](OC5CCCCC5)CC4)cccc32)nc1 [Example 1-107] | < 0.1 µM
Cc1ccc(N2CCOc3c(C(=O)N[C@H]4CC[C@H](OCC5CCCCC5)CC4)cccc32)nc1 [Example 1-119] | < 0.1 µM
CCOc1ccc(NC(=O)c2cccc3c2OCCN3c2ccc(Cl)cn2)cc1 [Example 1-120] | < 0.1 µM
O=C(Nc1ccc(Cl)cc1)c1cccc2c1OCCN2c1ccc(Cl)cn1 [Example 1-121] | < 0.1 µM
COC1CCN(c2ccc(NC(=O)c3cccc4c3OCCN4c3ccc(Cl)cn3)cc2F)CC1 [Example 1-122] | < 0.1 µM
O=C(Nc1ccc(C(F)(F)F)cc1)c1cccc2c1OCCN2c1ccc(Cl)cn1 [Example 1-123] | < 0.1 µM
Cc1ccc(N2CCOc3c(C(=O)NCCc4ccccc4)cccc32)nc1 [Example 1-124] | < 0.1 µM

SMILES | IC50
Cc1ccc(N2CCOc3c(C(=O)NCCc4ccc(Cl)cc4)cccc32)nc1 [Example 1-125] | < 0.1 µM
Cc1ccc(N2CCOc3c(C(=O)NCCc4cccc(Cl)c4)cccc32)nc1 [Example 1-126] | < 0.1 µM
Cc1ccc(N2CCOc3c(C(=O)NCCc4ccccc4Cl)cccc32)nc1 [Example 1-127] | < 0.1 µM
O=C(O)c1ccc(N2CCOc3c(C(=O)Nc4ccc(C(F)(F)F)cc4)cccc32)nc1 [Example 1-128] | 0.1 to 1 µM
CC(C)(O)c1cnc(N2CCOc3c(C(=O)Nc4ccc(C(F)(F)F)cc4)cccc32)c(Cl)c1 [Example 1-129] | < 0.1 µM
CC(O)c1cnc(N2CCOc3c(C(=O)Nc4ccc(C(F)(F)F)cc4)cccc32)c(Cl)c1 (stereo not shown) [Example 1-130] | < 0.1 µM
O=C(O)c1cnc(N2CCOc3c(C(=O)Nc4ccc(C(F)(F)F)c(F)c4)cccc32)c(Cl)c1 [Example 1-131] | 0.1 to 1 µM
COC(=O)c1ccc(N2CCOc3c(C(=O)Nc4ccc(C(C)(C)C)cc4)cccc32)nc1 [Example 1-132] | 0.1 to 1 µM
CC(C)(C)c1ccc(NC(=O)c2cccc3c2OCCN3c2ccc(C(=O)O)cn2)cc1 [Example 1-133] | 0.1 to 1 µM
O=C(O)c1cnc(N2CCOc3c(C(=O)Nc4ccc(C(F)(F)F)cc4)cccc32)c(Cl)c1 [Example 1-136] | < 0.1 µM
CC(C)(C)c1ccc(NC(=O)c2cccc3c2OCCN3c2ccc([N+](=O)[O-])cn2)cc1 [Example 1-140] | < 0.1 µM
CC(C)(C)c1ccc(NC(=O)c2cccc3c2OCCN3c2ccc(N)cn2)cc1 [Example 1-141] | < 0.1 µM
COCc1ccc(N2CCOc3c(C(=O)Nc4ccc(C(F)(F)F)cc4)cccc32)nc1 [Example 1-143] | < 0.1 µM
CCOc1ccc(N2CCOc3c(C(=O)Nc4ccc(C(F)(F)F)cc4)cccc32)nc1 [Example 1-144] | < 0.1 µM
COc1cnc(N2CCOc3c(C(=O)Nc4ccc(C(F)(F)F)cc4)cccc32)c(Cl)c1 [Example 1-145] | < 0.1 µM
O=C(Nc1ccc(C(F)(F)F)cc1)c1cccc2c1OCCN2c1ccc(O)cn1 [Example 1-146] | < 0.1 µM
COc1ccc(N2CCOc3c(C(=O)Nc4ccc(C(F)(F)F)cc4)cccc32)nc1 [Example 1-147] | < 0.1 µM
CC(C)(C)c1ccc(NC(=O)c2cccc3c2OCCN3c2cc(Cl)ccn2)cc1 [Example 1-148] | < 0.1 µM
O=C(Nc1ccc(C(F)(F)F)cc1)c1cccc2c1OCCN2c1ccc(F)cn1 [Example 1-149] | < 0.1 µM
O=C(Nc1ccc(C(F)(F)F)cc1)c1cccc2c1OCCN2c1ncc(F)cc1F [Example 1-150] | < 0.1 µM
COc1cccnc1N1CCOc2c(C(=O)Nc3ccc(C(C)(C)C)cc3)cccc21 [Example 1-151] | < 0.1 µM
